Patent US5922891A, “2-substituted 1,8-dihydroxy-9(10H)-anthracenone pharmaceuticals” (priority 1997, dated 1999)
Where two headings read alike, the source gives them in different places.

Tests used:
[1] = Inhibition of AAPH-induced lipid peroxidation in bovine brain phospholipid liposomes; assay type: biochemical
Description: Phospholipids were prepared essentially as described by Gutteridge, J. M. C., (Anal. Biochem., 82: 76-82 (1977)). Bovine brain tissue was cooled on ice, freed from blood vessels and washed repeatedly with 0.15 M NaCl, pH 7.4. The tissue was cut into pieces and then macerated with an ultra-turrax, passed through a fine-meshed sieve, and extracted four times with four times the volume of acetone. The extraction mixture was filtered by suction to remove the acetone, the residue dried under vacuum, and then repeatedly extracted with petroleum ether (40-60) using twice the volume of the original brain homogenate. The combined extracts were filtered, dried at 45° C., and dissolved in ether (one fifth the original brain volume). The mixture was treated with five times the volume of acetone, and the resulting precipitate was collected by suction-filtration, dried and stored under N2 at -20° C. in the dark. Bovine brain phospholipids were weighed into glass tubes and shaken in a vortex mixer (Heidolph) in the presence of five small glass beads (.phi. 4 mm) for 1 minute. The phospholipids were suspended in 0.15 M NaCl, pH 7.4, to a final concentration of 5 mg/ml. The mixture was purged with N2 for 1 minute and vigorously dispersed in a vortex mixer for 5 minutes. The liposomes were allowed to swell for 1 hour at 4° C., and vesicles with a mean size of 1-10 μm were obtained according to the method of Bangham, et al., (J. Mol. Biol., 13:238-252 (1965). The liposomes were stimulated with the azo initiator 2 2'-azobis (2-amidinopropane) hydrochloride according to the method of Gutteridge, J. M. C., (Anal. Biochem. 82:76-82 (1977)).
The following reagents were added to the glass tubes containing stimulating bovine brain phospholipid piposomes in the order and at the final concentrations listed: 0.3 ml HK2 PO4 --KOH buffer, pH 7.4 (30 mM), 0.29 ml double distilled H2 O, 0.2 ml liposomes (1 mg/ml), 0.2 ml FeCl3.H2 O (0.1 mM), 0.01 ml 2-substituted anthracenone compound of the invention (variable concentrations).
Appropriate blanks and controls using the vehicle (acetone) were conducted. The final reaction volumes were standardized to 1.0 ml. The reaction mixtures were incubated for 1 hour at 37° C. in a shaking water bath. […] of 20% (w/v) BHT, 0.5 ml 25% (w/v) HCl and 0.5 ml of 1% 2-thiobarbituric acid were added and the samples were heated at 100° C. for 15 minutes and then cooled in an ice bath (5 minutes). 2 ml of 1-butanol were added and the mixtures were vigorously shaken in a vortex mixer (Heidolph) for 15 seconds. The organic layer was separated by centrifugation at 3000 rpm (15 minutes) and absorbance at 532 nm was measured against butanol.

[2] = Deoxyribose degradation as a measure of hydroxyl radical formation; assay type: biochemical; details: 75 μM test compound; controls < 0.1
Description: ^c Deoxyribose degradation as a measure of hydroxyl radical formation
Indicated values are μmoles of malondialdehyde per mmole of deoxyribos
released by 75 μM test compound (controls < 0.1).
Degradation of deoxyribose provides a measurement of the amount of hydroxyl radical formation caused by the test compounds. The assay used to determine degradation of 2-deoxy-D-ribose followed generally the procedures of Gutteridge, J. M. C., Biochem. J., 224: 761-767 (1984) and Laughton, et al., Biochem. Pharmacol., 38: 2859-2865 (1989). The following reagents were added to glass tubes in the order and at the final concentrations listed. 0.3 mL kH2 PO4 --KOH buffer, pH 7.4 (30 mM), 0.2 ml double distilled H2 O, 0.2 ml 2-deoxy-D-ribose (2 mM), 0.2 ml FeCl3.6H2 O (0.1 mM), 0.1 ml 2-substituted anthracenone ([…]). Stock solutions of each of the 2-substituted anthracenone compounds were made up fresh before use. Appropriate blanks and controls using an acetronitrile vehicle were performed.
Final reaction volumes were standardized to 1.0 ml. The reaction mixtures were incubated for 2 hours at 37° C. in a shaking water bath at 50 rpm. 1 ml of 2.8% (w/v) trichloracetic acid and 1 ml of 1% (w/v in 0.05 N NaOH) 2-thiobarbituric acid (TBA) were added, and the samples were heated at 100° C. for 15 minutes and then cooled in an ice bath (5 minutes). 2 ml of each reaction mixture was treated with 0.05 ml of 36% (w/v) HCl and 2 of 1-butanol, followed by vigorous shaking with a vortex mixer (Heidolph) for 15 seconds. The organic layer was separated by centrifugation at 3000 rpm (15 minutes) and absorbance at 532 nm was measured against butanol. Calibration was performed using a malondialdehyde (MDA) standard prepared by hydrolysis of 1,1,3,3-tetraethoxypropane (Gutteridge, J. M. C., Anal. Biochem., 69: 518-526 (1975). TBA reactive material was expressed in terms of μmol MDA per μmol deoxyribose. The results of the assay are provided in Table I.

5-LO in bovine PMNL = biological target: T1, 5-LO in bovine PMNL (Bos taurus, UniProt F1MQ78); experiment: Inhibition of 5-lipoxygenase (5-HETE and LTB4 biosynthesis) in Ca-ionophore-stimulated bovine PMNL; assay type: cell-based; details: N = 3 or more
T1 construct: The purified PMNLs were suspended at a concentration of; endogenous in cells; host or cells: polymorphonuclear leukocytes isolated from bovine blood
T1 sequence (F1MQ78 1-674): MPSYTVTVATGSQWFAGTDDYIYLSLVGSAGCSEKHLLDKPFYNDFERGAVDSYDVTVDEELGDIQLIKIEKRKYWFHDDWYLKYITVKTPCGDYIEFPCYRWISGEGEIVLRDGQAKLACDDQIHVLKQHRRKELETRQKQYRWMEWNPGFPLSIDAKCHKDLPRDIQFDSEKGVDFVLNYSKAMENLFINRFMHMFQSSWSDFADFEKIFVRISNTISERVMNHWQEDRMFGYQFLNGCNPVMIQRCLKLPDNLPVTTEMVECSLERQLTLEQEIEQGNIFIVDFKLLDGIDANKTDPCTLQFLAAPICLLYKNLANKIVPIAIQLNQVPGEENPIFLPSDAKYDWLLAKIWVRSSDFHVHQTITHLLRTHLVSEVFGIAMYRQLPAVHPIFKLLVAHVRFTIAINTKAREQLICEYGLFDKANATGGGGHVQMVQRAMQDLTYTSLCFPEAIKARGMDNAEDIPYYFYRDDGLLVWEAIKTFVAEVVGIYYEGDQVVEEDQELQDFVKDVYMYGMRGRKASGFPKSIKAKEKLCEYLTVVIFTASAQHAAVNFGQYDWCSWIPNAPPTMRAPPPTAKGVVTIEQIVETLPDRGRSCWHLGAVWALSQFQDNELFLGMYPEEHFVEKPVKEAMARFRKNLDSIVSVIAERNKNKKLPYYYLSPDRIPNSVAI
Description: Briefly, PMNLs were prepared from sodium EDTA-anticoagulated bovine blood, essentially as described by Walstra, P. et al., (Biochem. Biophys. Acta, 795:499-503 (1984)). Contaminating platelets were removed by repeated centrifugations at 100 g for 20 minutes. […] Cell counts were conducted with a Sysmex micro cell counter CC-130. Preincubation was performed with 2.4 ml of the suspension and 10 μl of a DMSO stock solution of test compounds at the desired concentrations in phosphate buffered saline (PBS) or vehicle control (DMSO at final concentration of 0.4%) for 15 minutes at 37° C. in a shaking water bath at 50 rpm. […] The incubation mixture was held on ice bath for 20 minutes and then centrifuged at 4000 g for 5 minutes at 0° C. The supernatant was diluted with 5 ml of water and passed through a prewashed (10 ml of methanol and 5 ml of water, sequentially) octadecylsilane reversed phase cartridge (Baker). The eicosanoids were eluted with 3 ml of methanol, diluted with 3 ml of water and subjected to reversed phase HPLC analysis using a 250×4 mm column packed with Nucleosil C18 (7 μm particles; Bischoff, Leonberg, Germany). The isocratic elution conditions of LTB4 were tetrahydrofuran (THF)/methanol/water/acetic acid (25+30+45+0.1), adjusted to pH 5.5 with concentrated NH3, at a flow rate of 0.9 ml/min (Kontron 420 pump), monitored at 280 nm with a Kontron 735 LC UV detector. 5-HETE was monitored at 232 nm using methanol/water/acetic acid (77+23+0.1), pH 5.5 and a flow rate 1.0 ml/min. Data were recorded on a MacLab data acquisition system (WissTech, Germany) and analysis was performed using the application Peaks on an Apple Macintosh Quadra 700 computer. Integrated areas of the peaks were compared to a PGB2 internal standard and to external standards of authentic samples. Molar absorption coefficients of Samuelsson et al., Borgeat, P. and B. Samuelsson, (Proc. Natl. Acad. Sci. USA, 76:2148-2152 (1979)), were used for making calculations. Inhibition was calculated by a comparison of the mean value of test compound (n=3) with control (n=6-8) activity: (1-test compound/control)×100.
See Walstra, P. et al., Biochem Biophys. Acta, 795:499-503 (1984); and Dannhardt et al. J. Pharm. Pharmacol., 44:419-424 (1992). […] (Schroder, J. M., J. Invest. Dermatol., 87:624-629 (1986); Tanzer, et al., Arch. Pharm. (Weinheim), 324:841-846 (1991)).

HaCaT cells = experiment: Antiproliferative activity against HaCaT cells (human keratinocyte cell line); assay type: cell-based; details: 48 h, read-out: AA IC50 (antiproliferative activity)
Description: HaCaT cells were grown in Dulbecco's modified Eagle's medium (DMEM, No. 041-11954A, Gibco) supplemented with 10% fetal calf serum, penicillin (100 U/mL), and streptomycin (100 μg/mL) in a humidified incubator containing 8% CO2 at 37° C. Cells (2.5·10^4 /1.1 ml per well) were seeded on 24-well multidishes and grown in DMEM. After 24 hours of growth, the medium was replaced with fresh medium and a test compound (0.1-5 μM) was added from freshly made stock solutions, which were prepared in DMSO and diluted with DMEM. The final concentration of DMSO in the culture medium was 0.2%. Controls were performed using DMSO or medium alone. Forty-eight hours after addition of a test compound to the culture, the medium was removed and each well was rinsed with phosphate-buffered saline (PBS, 100 μL). The cells were then incubated with sterile 0.5% trypsin, 0.2% EDTA in PBS for 20 minutes at 37° C. The detached cells from each well were suspended in DMEM and dispersed as single cells by gentle pipetting through an Eppendorf pipette. Cell growth was determined directly by counting the keratinocytes on a Neubauer counting chamber using phase contrast microscopy. Inhibition of cell proliferation was calculated by a comparison of the mean value of the test compound (N=3) with the control (N=6-8) activity: (1-test compound/control)×100.

[3] = AAPH-induced, bovine brain phospholipid liposomes, N = 3 or more, read-out: LPO IC50 (inhibition of lipid peroxidation)

CN(O)C(=O)CCc1ccc2c(c1O)C(=O)c1c(O)cccc1C2 [IID, N-Hydroxy-N-methyl-3-(9,10-dihydro-1,8-dihydroxy-9-oxo-2-anthracene)propionamide]
IC50 [1, 3]: 11 µM
DD (deoxyribose degradation, malondialdehyde released) [2]: 0.92 ± 0.03 μmol of MDA/mmol

COC(=O)CCCc1ccc2c(c1O)C(=O)c1c(O)cccc1C2 [IIIB, Methyl 4-(9,10-Dihydro-1,8-dihydroxy-9-oxo-2-anthracene) butanoate]
IC50 (5-LO in bovine PMNL): > 30 µM
IC50 (HaCaT cells): 1.1 µM

CN(O)C(=O)CCCc1ccc2c(c1O)C(=O)c1c(O)cccc1C2 [IIID, N-Hydroxy-N-methyl-4-(9,10-dihydro-1,8-dihydroxy-9-oxo-2-anthracene)butanamide]
IC50 [1, 3]: 37 µM
DD (deoxyribose degradation, malondialdehyde released) [2]: 1.50 ± 0.02 μmol of MDA/mmol

CN(O)C(=O)CCCCc1ccc2c(c1O)C(=O)c1c(O)cccc1C2 [IVD, N-Hydroxy-N-methyl-5-(9,10-dihydro-1,8-dihydroxy-9-oxo-2-anthracene)pentanamide]
IC50 [1, 3]: 16 µM
DD (deoxyribose degradation, malondialdehyde released) [2]: 1.36 ± 0.05 μmol of MDA/mmol

COC(=O)C(Cc1ccccc1)c1ccc2c(c1O)C(=O)c1c(O)cccc1C2 (centres unmarked) [IXB, Methyl 2-(9,10-Dihydro-1,8-dihydroxy-9-oxo-2-anthracene)-3-phenylpropionate]
IC50 (5-LO in bovine PMNL): > 30 µM
IC50 (HaCaT cells): 1.8 µM
DD (deoxyribose degradation, malondialdehyde released) [2]: 0.01 ± 0.00 μmol of MDA/mmol

COc1c(OC)c(OC(C)=O)c2cc(Cl)ccc2c1OC(C)=O [Ionapalene, reference compound]
IC50 (5-LO in bovine PMNL): 0.5 µM
IC50 (HaCaT cells): 3.2 µM

CC(Cc1ccc(O)c(O)c1)C(C)Cc1ccc(O)c(O)c1 (centres unmarked) [Nordihydroguaiaretic acid (NDGA), Nordihydroguaiaretic acid, reference compound]
IC50 ([1]; NDGA used as the standard, footnote d, read-out: LPO IC50 of the standard): 2 µM

O=C(O)CCCCCc1ccc2c(c1O)C(=O)c1c(O)cccc1C2 [VA, 6-(9,10-Dihydro-1,8-dihydroxy-9-oxo-2-anthracene) hexanoic acid]
IC50 (5-LO in bovine PMNL): 19 µM
DD (deoxyribose degradation, malondialdehyde released) [2]: 2.29 ± 0.03 μmol of MDA/mmol

CN(O)C(=O)CCCCCc1ccc2c(c1O)C(=O)c1c(O)cccc1C2 [VD, N-Hydroxy-N-methyl-6-(9,10-dihydro-1,8-dihydroxy-9-oxo-2-anthracene)hexanamide]
IC50 (HaCaT cells): 0.9 µM
IC50 [1, 3]: 15 µM

COC(=O)C(CCc1ccccc1)c1ccc2c(c1O)C(=O)c1c(O)cccc1C2 (centres unmarked) [XB, Methyl 2-(9,10-Dihydro-1,8-dihydroxy-9-oxo-2-anthracene)-4-phenylbutanoate]
IC50 (5-LO in bovine PMNL): > 30 µM
DD (deoxyribose degradation, malondialdehyde released) [2]: 0.28 ± 0.03 μmol of MDA/mmol

COC(=O)c1ccc(C(=O)c2ccc3c(c2O)C(=O)c2c(O)cccc2C3)cc1 [XIIB, Methyl 4-[(9,10-Dihydro-1,8-dihydroxy-9-oxo-2-anthracene)oxomethyl]benzoate]
IC50 (5-LO in bovine PMNL): > 30 µM
IC50 (HaCaT cells): 1.8 µM
DD (deoxyribose degradation, malondialdehyde released) [2]: 2.07 ± 0.12 μmol of MDA/mmol
